Like-named read-outs stand apart in the source and are kept apart here.
Columns and labels:
NF-κB [1] = test: NF-κB inhibition assay (LPS-stimulated), HEK001; assay type: cell-based; conditions: Homo sapiens, read-out: NF-κB Inhibition at 72 h IC50 ± SEM
Description: (§1) To determine the anti-inflammatory activity of the samples (at the same concentration as in the viability assay), NF-κB inhibition assay was used, following the protocol carried out by Apaza Ticona et al.. Cells were cultured in 96-well plates (1 × 10^6 cells/well). […] Absorbance was measured at 450 nm using a microplate reader.

tyrosinase in HMCB cells = biological target: T1, tyrosinase in HMCB cells (Homo sapiens, UniProt P14679); test: Cellular tyrosinase assay (L-DOPA as substrate); assay type: cell-based
T1 construct: endogenous in cells; host or cells: HMCB cells
T1 sequence (P14679 19-529): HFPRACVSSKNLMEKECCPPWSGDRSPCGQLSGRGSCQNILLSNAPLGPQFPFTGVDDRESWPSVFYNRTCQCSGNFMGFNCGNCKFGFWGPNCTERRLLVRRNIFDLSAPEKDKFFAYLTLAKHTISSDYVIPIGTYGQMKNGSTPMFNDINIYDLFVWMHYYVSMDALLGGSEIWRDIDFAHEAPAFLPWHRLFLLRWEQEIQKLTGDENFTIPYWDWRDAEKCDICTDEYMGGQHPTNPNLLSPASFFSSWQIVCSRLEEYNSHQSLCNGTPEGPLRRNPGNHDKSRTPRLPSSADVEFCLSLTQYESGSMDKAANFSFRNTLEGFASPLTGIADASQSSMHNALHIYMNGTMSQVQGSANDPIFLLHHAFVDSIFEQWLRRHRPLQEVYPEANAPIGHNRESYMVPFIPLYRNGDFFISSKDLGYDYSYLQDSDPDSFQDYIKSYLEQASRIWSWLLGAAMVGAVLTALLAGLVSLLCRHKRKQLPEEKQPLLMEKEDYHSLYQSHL
Description: as §1, with “anti-tyrosinase” for “anti-inflammatory”, “tyrosinase” for “NF-κB”, “HMCB cells” for “Cells”, “475” for “450”

[2] = NR viability assay, HEK001; assay type: cell-based, Homo sapiens; conditions: human
Description: (§2) The HEK001 (Homo sapiens cutaneous keratinocyte, CCL-2404), WS1 (Homo sapiens cutaneous fibroblast, CRL-1502), HMCB (Homo sapiens cutaneous melanoma, CRL-9607), and THP-1 (Homo sapiens peripheral blood monocyte, TIB-202) cell lines used in this study were obtained from the American Type Culture Collection (ATCC, Manassas, VA, USA). Cultivated in a Roswell Park Memorial Institute (RPMI) 1640 medium (RPMI 1640 Merck, Cat. No. R7755, New York, NY, USA) supplemented with 2 mM L-glutamine (≥99% Merck, Cat. No. 56-85-9), 10% fetal bovine serum (FBS Merck, Cat. No. TMS-016, St. Louis, MO, USA), and 10,000 units of penicillin and 10 mg streptomycin/mL (Merck, Cat. No. P4333, St. Louis, MO, USA) in culture flasks, the cells were maintained in an incubator under normoxic conditions (20–21% O2) and a humidified atmosphere (5% CO2 at 37 °C).
(§3) Mother solutions of samples (extracts, fractions, and compounds) were prepared at a concentration of […] using dimethyl sulfoxide (DMSO ≥ 99.9% Merck, Cat. No. 67-68-5, St. Louis, MO, USA) as the solvent. From these mother solutions, dilutions were prepared at concentrations ranging from 100 to 0.20 μg/mL or μM in culture medium containing 0.5% DMSO. Additionally, a negative control group consisting solely of culture medium with 0.5% DMSO was included to assess its potential cytotoxic effect on the cells.
(§4) Cell viability was evaluated using a colorimetric assay in 96-well plates, employing 3-amino-7-dimethylamino-2-methylphenazine hydrochloride salt reagent (NR, Merck, Cat. No. 553-24-2, St. Louis, MO, USA).
(§5) HEK001, WS1, HMCB, and THP-1 cell lines were cultured in 96-well plates at 37 °C with 5% CO2 until > 90% confluency was achieved (1 × 10^6 cells/well). Subsequently, the cultures were treated with sample dilutions (100–0.20 μg/mL or μM) for 72 h at 37 °C with 5% CO2 in phenol red-free RPMI. The supernatant was then discarded and the cells were washed with phosphate-buffered saline (PBS) before being incubated with […] NR (50 μg/mL; 173 μM) for 3 h at 37 °C with 5% CO2. NR labelling was performed after DMSO treatment. After incubation, the labelled sample dilutions were rapidly washed with a fixative solution composed of 1% calcium chloride (CaCl2 Merck, Cat. No. 10043-52-4, St. Louis, MO, USA) and 0.5% formaldehyde solution (≥36.0% in H2O Merck, Cat. No. 50-00-0, St. Louis, MO, USA), then diluted with 100 μL of the NR extraction solution. Finally, the plates were read at 540 nm using a microplate reader (Anthos 2020, version 2.0.5, Biochrom Ltd., Cambridge, UK).

NF-κB [3] = test: NF-κB inhibition assay (LPS-stimulated), THP-1; assay type: cell-based; conditions: Homo sapiens, read-out: NF-κB Inhibition at 72 h IC50 ± SEM
Description: as §1

[4] = system: melanin production in HMCB cells; test: Melanin content assay; assay type: cell-based; conditions: Homo sapiens, 12 h
Description: as §1, with “anti-melanogenic” for “anti-inflammatory”, “melanin” for “NF-κB”, “HMCB cells” for “Cells”, “405” for “450”

Nrf2 = Nrf2 activation assay, HEK001; assay type: cell-based
Description: as §1, with “antioxidant response” for “anti-inflammatory activity”, “Nrf2 activation” for “NF-κB inhibition”, “540” for “450”

NR viability assay, WS1 = assay type: cell-based, Homo sapiens; conditions: human
Description: as §2, §3, §4, §5

[5] = NR viability assay, THP-1; assay type: cell-based, Homo sapiens; conditions: human
Description: as §2, §3, §4, §5

NR viability assay, HMCB = assay type: cell-based, Homo sapiens; conditions: human
Description: as §2, §3, §4, §5

NF-κB [6] = test: NF-κB inhibition assay (LPS-stimulated), HMCB; assay type: cell-based; conditions: Homo sapiens, 72 h, read-out: NF-κB Inhibition at 72 h IC50 ± SEM
Description: as §1

[7] = HMCB cells, L-DOPA as substrate, 12 h, read-out: Tyrosinase inhibitory activity IC50
[8] = HMCB cells, read-out: Inhibitory activity of melanin production IC50
[9] = Homo sapiens, HEK001, 72 h; read-out: Activation of Nrf2 production EC50

CNC(=O)c1ccccc1NC(=O)/C=C/c1ccc(OC)c(OC)c1 [Compound 1, (E)-2-(3-(3,4-dimethoxyphenyl)acrylamido)-N-methylbenzamide]
IC50 (NF-κB [1]; HEK001, LPS-stimulated, 72 h): 11.2 ± 0.23 µM
IC50 (tyrosinase in HMCB cells; [7]): 14.2 µM
CC50 at 72 h ([2]; HEK001 cells (cutaneous keratinocytes), HEK001, NR assay, 72 h, read-out: Viability CC50): 76.2 µM
IC50 (NF-κB [3]; THP-1, LPS-stimulated, 72 h): 12.7 ± 0.34 µM
IC50 [4, 8]: 22.2 µM
EC50 (Nrf2; [9]): 0.202 µM
CC50 at 72 h (NR viability assay, WS1; WS1 cells (cutaneous fibroblasts), WS1, NR assay, 72 h, read-out: Viability CC50): 73 µM
CC50 at 72 h ([5]; THP-1 cells (peripheral blood monocytes), THP-1, NR assay, 72 h, read-out: Viability CC50): 80 µM
CC50 at 72 h (NR viability assay, HMCB; HMCB cells (cutaneous melanoma), HMCB, NR assay, 72 h, read-out: Viability CC50): 69.8 µM
IC50 (NF-κB [6]; LPS-stimulated): 9.82 ± 0.65 µM

O=C(O)c1cc(O)c2ccccc2n1 [Compound 2, 4-hydroxyquinoline-2-carboxylic acid]
IC50 (NF-κB [1]; HEK001, LPS-stimulated, 72 h): 35.42 ± 0.12 µM
IC50 (tyrosinase in HMCB cells; [7]): 33.8 µM
CC50 at 72 h [2]: 95 µM
IC50 (NF-κB [3]; THP-1, LPS-stimulated, 72 h): 37.2 ± 0.72 µM
IC50 [4, 8]: 44.7 µM
EC50 (Nrf2; [9]): 0.32 µM
CC50 at 72 h (NR viability assay, WS1): 89.9 µM
CC50 at 72 h ([5]; Viability CC50): 100 µM
CC50 at 72 h (NR viability assay, HMCB): 87.7 µM
IC50 (NF-κB [6]; LPS-stimulated): 30.7 ± 0.98 µM

N#C/C(=C\c1ccc(O)cc1)C(=O)O [Compound 3, (E)-2-cyano-3-(4-hydroxyphenyl)acrylic acid]
IC50 (NF-κB [1]; HEK001, 72 h): 55.97 ± 0.32 µM
IC50 (tyrosinase in HMCB cells): 51.5 µM
CC50 at 72 h ([2]; HEK001, NR assay, 72 h, read-out: Viability CC50): 130 µM
IC50 (NF-κB [3]; THP-1, 72 h): 58.8 ± 0.86 µM
IC50 ([4]; HMCB, read-out: Inhibitory activity of melanin production IC50, HMCB cells, 12 h): 71.1 µM
EC50 (Nrf2; Homo sapiens, HEK001, 72 h, read-out: Activation of Nrf2 production EC50): 0.951 µM
CC50 at 72 h (NR viability assay, WS1; WS1, NR assay, 72 h, read-out: Viability CC50): 107 µM
CC50 at 72 h ([5]; THP-1, NR assay, 72 h, read-out: Viability CC50): 141 µM
CC50 at 72 h (NR viability assay, HMCB; HMCB, NR assay, 72 h, read-out: Viability CC50): 98.4 µM
IC50 (NF-κB [6]): 51.42 ± 0.13 µM

Source: publication PMC11280343, “Rubus urticifolius Compounds with Antioxidant Activity, and Inhibition Potential against Tyrosinase, Melanin, Hyaluronidase, Elastase, and Collagenase” (Pharmaceuticals, 2024)
